In patent US20260176320A1, “MODULATORS OF G-PROTEIN COUPLED RECEPTORS” (priority 2018, published 2026):
pEC50: −log10 of the molar value. Read-outs that look alike come from different tables or passages of the source. Numbered stars: 1 amine (or outer) side, 2 acyl side, 3 side chain; on linkers, the order of the positions; unused ones are H or OH. Square brackets hold non-standard residues; d marks the D form. Side chains are listed from the residue outwards. Peptide text beside a SMILES is read from it. * marks the point of attachment. X4 = CC(C)(C(=O)NCCN1C(=O)CSC1=O)C(=O)*; γGlu = O=C(O)[C@H](CCC(=O)[*:2])N[*:1]; X2 = O=C(CSCC(=O)*)NCCN1C(=O)CSC1=O; Palmitoyl = CCCCCCCCCCCCCCCC(=O)*; Aib = CC(C)(N)C(=O)O

What was measured:
Format in all cases: cell-based
GLP-1R [1] = target: T1, GLP-1R (Homo sapiens, UniProt P43220); experiment: HitHunter cAMP assay (GLP-1R); settings: cAMP; for Emax: read-out: (Emax) GLP-1R
T1 sequence (P43220 24-463): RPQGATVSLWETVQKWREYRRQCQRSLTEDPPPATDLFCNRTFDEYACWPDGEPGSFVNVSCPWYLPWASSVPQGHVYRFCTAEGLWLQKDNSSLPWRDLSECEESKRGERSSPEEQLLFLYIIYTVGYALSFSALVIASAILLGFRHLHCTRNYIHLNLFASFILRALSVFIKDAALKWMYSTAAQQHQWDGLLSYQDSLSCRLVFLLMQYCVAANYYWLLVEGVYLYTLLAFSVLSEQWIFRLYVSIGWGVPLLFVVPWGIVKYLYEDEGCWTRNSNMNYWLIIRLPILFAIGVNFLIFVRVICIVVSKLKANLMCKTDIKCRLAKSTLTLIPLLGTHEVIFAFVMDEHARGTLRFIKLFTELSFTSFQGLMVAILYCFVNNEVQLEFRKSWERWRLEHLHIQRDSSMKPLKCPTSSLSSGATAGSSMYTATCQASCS
Procedure, shortened: (§1)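 Suspension cells expressing each receptor (10,000 per well) in HBSS with 10 mM HEPES, 625 μM IBMX and 0.2% BSA were treated with a 22-point 2-fold agonist series in duplicate for 30 minutes at room temperature. cAMP was detected by antibody immunocompetition with luminescence read after overnight incubation.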

GIP-R = target: T2, GIP-R (Homo sapiens, UniProt P48546); experiment: HitHunter cAMP assay (GIP-R); settings: cAMP; for Emax: read-out: (Emax) GIP-R
T2 sequence (P48546 22-466): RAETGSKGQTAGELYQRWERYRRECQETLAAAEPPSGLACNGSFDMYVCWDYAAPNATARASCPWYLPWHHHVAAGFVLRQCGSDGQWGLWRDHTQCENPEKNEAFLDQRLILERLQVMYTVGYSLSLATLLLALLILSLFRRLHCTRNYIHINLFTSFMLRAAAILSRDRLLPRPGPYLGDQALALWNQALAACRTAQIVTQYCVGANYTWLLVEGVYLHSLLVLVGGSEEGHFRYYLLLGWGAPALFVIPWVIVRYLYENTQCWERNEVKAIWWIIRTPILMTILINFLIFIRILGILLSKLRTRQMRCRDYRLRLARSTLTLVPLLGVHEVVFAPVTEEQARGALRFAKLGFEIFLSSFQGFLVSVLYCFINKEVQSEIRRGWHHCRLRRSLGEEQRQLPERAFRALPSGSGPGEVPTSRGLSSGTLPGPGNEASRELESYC
Procedure, shortened: as §1

GLP-1R [2] = target: T1, GLP-1R; experiment: PathHunter β-arrestin assay
Procedure, shortened: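 Cells seeded overnight, then medium replaced with medium containing 0.2% BSA; agonists added as 22-point 2-fold DMSO dilution series in duplicate and incubated 90 min at 37 °C, 5% CO2. After addition of detection solution, plates sat 3 h at room temperature in the dark; luminescence read.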

[3] = Table 3, read-out: EC50 GLP-1R/nM
[4] = Table 3A, read-out: EC50 GLP-1R/nM
[5] = Table 3, read-out: EC50 GIP-R/nM
[6] = Table 3A, read-out: EC50 GIP-R/nM
[7] = PathHunter β-arrestin assay, read-out: β-arrestin activity EC50

Row | Compound | Emax (GLP-1R [1]; Table 3) [%] | EC50 (GLP-1R [1]; [3]) [nM] | Emax (GLP-1R [1]; Table 3A) [%] | EC50 (GLP-1R [1]; [4]) [nM] | Emax (GIP-R; Table 3) [%] | EC50 (GIP-R; [5]) [nM] | Emax (GIP-R; Table 3A) [%] | EC50 (GIP-R; [6]) [nM] | pEC50 (GLP-1R [2]; [7]) | EC50 (GLP-1R [1]; EC50 GLP-1R/nM, Table 3) [nM] | EC50 (GLP-1R [1]; EC50 GLP-1R/nM, Table 3A) [nM] | EC50 (GIP-R; EC50 GIP-R/nM, Table 3) [nM] | EC50 (GIP-R; EC50 GIP-R/nM, Table 3A) [nM] | pEC50 (GLP-1R [2])
1 | CCCCCCCCCCCCCCCC(=O)N[C@@H](CCC(=O)NCCCC[C@H](NC(=O)[C@H](CO)NC(=O)[C@@H]1CCCN1C(=O)[C@@H]1CCCN1C(=O)[C@@H]1CCCN1C(=O)[C@H](C)NC(=O)CNC(=O)[C@H](CO)NC(=O)[C@H](CO)NC(=O)[C@@H]1CCCN1C(=O)CNC(=O)CNC(=O)[C@H](C)NC(=O)[C@H](CC(C)C)NC(=O)[C@H](CC(C)C)NC(=O)[C@H](Cc1c[nH]c2ccccc12)NC(=O)[C@H](CC(N)=O)NC(=O)[C@@H](NC(=O)[C@H](Cc1ccccc1)NC(=O)[C@H](CCC(=O)O)NC(=O)C(C)(C)NC(=O)[C@H](C)NC(=O)[C@H](C)NC(=O)[C@H](CCC(N)=O)NC(=O)[C@H](CCCCN)NC(=O)[C@H](CC(=O)O)NC(=O)[C@H](CC(C)C)NC(=O)[C@H](Cc1ccc(O)cc1)NC(=O)[C@@H](NC(=O)[C@H](CO)NC(=O)[C@H](Cc1ccc(O)cc1)NC(=O)[C@H](CC(=O)O)NC(=O)[C@H](CO)NC(=O)[C@@H](NC(=O)[C@H](Cc1ccccc1)NC(=O)[C@@H](NC(=O)CNC(=O)[C@H](CCC(=O)O)NC(=O)CSCC(=O)NCCN1CCCNC1=O)[C@@H](C)O)[C@@H](C)O)[C@@H](C)CC)C(C)C)C(N)=O)C(=O)O [Compound 31] | 102 | 1 to 10 | 102 | 1 to 10 | 37 | 10 to 100 | 37 | 10 to 100 | < 6.00 | – | – | – | – | –
2 | CCCCCCCCCCCCCCCC(=O)N[C@@H](CCC(=O)NCCCC[C@H](NC(=O)[C@H](CO)NC(=O)[C@@H]1CCCN1C(=O)[C@@H]1CCCN1C(=O)[C@@H]1CCCN1C(=O)[C@H](C)NC(=O)CNC(=O)[C@H](CO)NC(=O)[C@H](CO)NC(=O)[C@@H]1CCCN1C(=O)CNC(=O)CNC(=O)[C@H](C)NC(=O)[C@H](CC(C)C)NC(=O)[C@H](CC(C)C)NC(=O)[C@H](Cc1c[nH]c2ccccc12)NC(=O)[C@H](CC(N)=O)NC(=O)[C@@H](NC(=O)[C@H](Cc1ccccc1)NC(=O)[C@H](CCC(=O)O)NC(=O)C(C)(C)NC(=O)[C@H](C)NC(=O)[C@H](C)NC(=O)[C@H](CCC(N)=O)NC(=O)[C@H](CCCCN)NC(=O)[C@H](CC(=O)O)NC(=O)[C@H](CC(C)C)NC(=O)[C@H](Cc1ccc(O)cc1)NC(=O)[C@@H](NC(=O)[C@H](CO)NC(=O)[C@H](Cc1ccc(O)cc1)NC(=O)[C@H](CC(=O)O)NC(=O)[C@H](CO)NC(=O)[C@@H](NC(=O)[C@H](Cc1ccccc1)NC(=O)[C@@H](NC(=O)CNC(=O)[C@H](CCC(=O)O)NC(=O)CSCC(=O)NCCN1CCS(=O)(=O)CC1=O)[C@@H](C)O)[C@@H](C)O)[C@@H](C)CC)C(C)C)C(N)=O)C(=O)O [Compound 29] | 98 | – | 98 | – | 11 | – | 11 | – | – | 1 to 10 | 1 to 10 | 1 to 10 | 100 to 1000 | < 6.00
3 | CCCCCCCCCCCCCCCC(=O)N[C@@H](CCC(=O)NCCCC[C@H](NC(=O)[C@H](CO)NC(=O)[C@@H]1CCCN1C(=O)[C@@H]1CCCN1C(=O)[C@@H]1CCCN1C(=O)[C@H](C)NC(=O)CNC(=O)[C@H](CO)NC(=O)[C@H](CO)NC(=O)[C@@H]1CCCN1C(=O)CNC(=O)CNC(=O)[C@H](C)NC(=O)[C@H](CC(C)C)NC(=O)[C@H](CC(C)C)NC(=O)[C@H](Cc1c[nH]c2ccccc12)NC(=O)[C@H](CC(N)=O)NC(=O)[C@@H](NC(=O)[C@H](Cc1ccccc1)NC(=O)[C@H](CCC(=O)O)NC(=O)C(C)(C)NC(=O)[C@H](C)NC(=O)[C@H](C)NC(=O)[C@H](CCC(N)=O)NC(=O)[C@H](CCCCN)NC(=O)[C@H](CC(=O)O)NC(=O)[C@H](CCSC)NC(=O)[C@H](C)NC(=O)[C@@H](NC(=O)[C@H](CO)NC(=O)[C@H](Cc1ccc(O)cc1)NC(=O)[C@H](CC(=O)O)NC(=O)[C@H](CO)NC(=O)[C@@H](NC(=O)[C@H](Cc1ccccc1)NC(=O)[C@@H](NC(=O)CNC(=O)[C@H](CCC(=O)O)NC(=O)CSCC(=O)NCCN1C(=O)CSC1=O)[C@@H](C)O)[C@@H](C)O)[C@@H](C)CC)C(C)C)C(N)=O)C(=O)O [Compound 71] (X2-EGTFTSDYSIAMDKQAA[Aib]EFVNWLLAGGPSSGAPPPSK([γGlu-Palmitoyl])-NH2) | 102 | 0.1 to 10 | 102 | 0.1 to 10 | 77 to 87 | 1 to 10 | 77 to 87 | 1 to 10 | < 6.00 | – | – | – | – | –
4 | CCCCCCCCCCCCCCCC(=O)N[C@@H](CCC(=O)NCCCC[C@H](NC(=O)[C@H](CO)NC(=O)[C@@H]1CCCN1C(=O)[C@@H]1CCCN1C(=O)[C@@H]1CCCN1C(=O)[C@H](C)NC(=O)CNC(=O)[C@H](CO)NC(=O)[C@H](CO)NC(=O)[C@@H]1CCCN1C(=O)CNC(=O)CNC(=O)[C@H](C)NC(=O)[C@H](CC(C)C)NC(=O)[C@H](CC(C)C)NC(=O)[C@H](Cc1c[nH]c2ccccc12)NC(=O)[C@H](CC(N)=O)NC(=O)[C@@H](NC(=O)[C@H](Cc1ccccc1)NC(=O)[C@H](CCC(=O)O)NC(=O)C(C)(C)NC(=O)[C@H](C)NC(=O)[C@H](C)NC(=O)[C@H](CCC(N)=O)NC(=O)[C@H](CCCCN)NC(=O)[C@H](CC(=O)O)NC(=O)[C@H](CC(C)C)NC(=O)[C@H](Cc1ccc(O)cc1)NC(=O)[C@@H](NC(=O)[C@H](CO)NC(=O)[C@H](Cc1ccc(O)cc1)NC(=O)[C@H](CC(=O)O)NC(=O)[C@H](CO)NC(=O)[C@@H](NC(=O)[C@H](Cc1ccccc1)NC(=O)[C@@H](NC(=O)CNC(=O)[C@H](CCC(=O)O)NC(=O)CSCC(=O)NCCN1C(=O)CCCC1=O)[C@@H](C)O)[C@@H](C)O)[C@@H](C)CC)C(C)C)C(N)=O)C(=O)O [Compound 123] | 104 | – | 104 | – | 111 | – | 111 | – | – | 1 to 10 | 1 to 10 | 0.1 to 1 | 0.1 to 1 | < 6.00
5 | CC[C@H](C)[C@H](NC(=O)[C@H](CO)NC(=O)[C@H](Cc1ccc(O)cc1)NC(=O)[C@H](CC(=O)O)NC(=O)[C@H](CO)NC(=O)[C@@H](NC(=O)[C@H](Cc1ccccc1)NC(=O)[C@@H](NC(=O)CNC(=O)[C@H](CCC(=O)O)NC(=O)C(C)(C)C(=O)NCCN1C(=O)CSC1=O)[C@@H](C)O)[C@@H](C)O)C(=O)N[C@@H](Cc1ccc(O)cc1)C(=O)N[C@@H](CC(C)C)C(=O)N[C@@H](CC(=O)O)C(=O)N[C@@H](CCCCN)C(=O)N[C@@H](CCC(N)=O)C(=O)N[C@@H](C)C(=O)N[C@H](C(=O)NC(C)(C)C(=O)N[C@@H](CCC(=O)O)C(=O)N[C@@H](Cc1ccccc1)C(=O)N[C@H](C(=O)N[C@@H](CC(N)=O)C(=O)N[C@@H](Cc1c[nH]c2ccccc12)C(=O)N[C@@H](CC(C)C)C(=O)N[C@@H](CC(C)C)C(=O)N[C@@H](C)C(=O)NCC(=O)NCC(=O)N1CCC[C@H]1C(=O)N[C@@H](CO)C(=O)N[C@@H](CO)C(=O)NCC(=O)N[C@@H](C)C(=O)N1CCC[C@H]1C(=O)N1CCC[C@H]1C(=O)N1CCC[C@H]1C(=O)N[C@@H](CO)C(=O)N[C@@H](CCCCN)C(N)=O)[C@@H](C)CC)C(C)C [Compound 132] (X4-EGTFTSDYSIYLDKQAV[Aib]EFINWLLAGGPSSGAPPPSK-NH2) | 103 to 114 | < 0.1 | 103 to 114 | < 0.1 | 61 to 64 | 1 to 10 | 61 to 64 | 1 to 10 | 6.00 to 8.00 | – | – | – | – | –
6 | CCCCCCCCCCCCCCCC(=O)N[C@@H](CCC(=O)NCCCC[C@H](NC(=O)[C@H](CO)NC(=O)[C@@H]1CCCN1C(=O)[C@@H]1CCCN1C(=O)[C@@H]1CCCN1C(=O)[C@H](C)NC(=O)CNC(=O)[C@H](CO)NC(=O)[C@H](CO)NC(=O)[C@@H]1CCCN1C(=O)CNC(=O)CNC(=O)[C@H](C)NC(=O)[C@H](CC(C)C)NC(=O)[C@H](CC(C)C)NC(=O)[C@H](Cc1c[nH]c2ccccc12)NC(=O)[C@H](CC(N)=O)NC(=O)[C@@H](NC(=O)[C@H](Cc1ccccc1)NC(=O)[C@H](CCC(=O)O)NC(=O)C(C)(C)NC(=O)[C@H](C)NC(=O)[C@H](C)NC(=O)[C@H](CCC(N)=O)NC(=O)[C@H](CCCCN)NC(=O)[C@H](CC(=O)O)NC(=O)[C@H](CC(C)C)NC(=O)[C@H](Cc1ccc(O)cc1)NC(=O)[C@@H](NC(=O)[C@H](CO)NC(=O)[C@H](Cc1ccc(O)cc1)NC(=O)[C@H](CC(=O)O)NC(=O)[C@H](CO)NC(=O)[C@@H](NC(=O)[C@H](Cc1ccccc1)NC(=O)[C@@H](NC(=O)CNC(=O)[C@H](CCC(=O)O)NC(=O)CCNC(=O)CCN1CCCCC1=O)[C@@H](C)O)[C@@H](C)O)[C@@H](C)CC)C(C)C)C(N)=O)C(=O)O [Compound 9] | 100 | < 0.1 | 100 | < 0.1 | 48 | 1 to 10 | 48 | 1 to 10 | < 6.00 | – | – | – | – | –
